In ChEMBL document CHEMBL4406908, “Identification of neomacrophorins isolated from Trichoderma sp. 1212-03 as proteasome inhibitors” (Bioorg Med Chem, 2019):
pIC50: −log10 of the molar value. Activity calls are given as the source filed them.

Columns and labels:
[1] = Binding affinity to NAC methyl ester in PBS-MeOH (7:3) solution at 1 mM by ESI/LC-MS analysis
HL-60 [2] = assay: Antiproliferative activity against human HL60 cells assessed as cell viability at 5 to 10 uM incubated for 48 hrs in presence of 5 mM nucleophile, NAC by trypan blue dye exclusion assay; type: functional, cell-based
HL-60 [3] = assay: Induction of apoptosis in human HL60 cells assessed as ROS generation; type: functional, cell-based
HL-60 [4] = assay: Induction of apoptosis in human HL60 cells assessed as caspase 3 cleavage at 5 uM incubated for 4 hrs in presence of 5 mM nucleophile, NAC by Western blot analysis; type: functional, cell-based
[5] = biological target: Proteasome Macropain subunit (Homo sapiens) (UniProt P49721); assay: Inhibition of trypsin-like activity of beta2 subunit of 20S proteasome in human erythrocytes using Boc-LRR-MCA as substrate preincubated with enzyme for 10 mins followed by substrate addition and measured after 3 hrs by fluorescence spectrophotometric analysis; type: cell-based
Proteasome = assay: Inhibition of proteasome in human HL60 cells assessed as accumulation of ubiquitinated proteins at 5 uM incubated for 4 hrs in presence of 5 mM nucleophile, NAC by Western blot analysis; type: subcellular
[6] = biological target: T1, Proteasome Macropain subunit MB1 (Homo sapiens) (UniProt P28074); assay: (§1) Inhibition of chymotrypsin-like activity of beta5 subunit of 20S proteasome in human erythrocytes using Suc-LLVY-MCA as substrate preincubated with enzyme for 10 mins followed by substrate addition and measured after 3 hrs by fluorescence spectrophotometric analysis
T1 sequence (whole entry): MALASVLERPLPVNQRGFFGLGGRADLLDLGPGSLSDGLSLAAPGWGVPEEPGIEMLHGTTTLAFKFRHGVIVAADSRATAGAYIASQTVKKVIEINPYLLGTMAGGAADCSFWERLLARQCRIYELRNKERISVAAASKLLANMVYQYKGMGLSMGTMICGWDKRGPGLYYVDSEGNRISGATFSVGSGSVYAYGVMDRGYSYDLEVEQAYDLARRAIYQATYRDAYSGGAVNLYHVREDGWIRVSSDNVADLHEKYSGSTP

[7] = biological target: T2, Proteasome Macropain subunit MB1 (Homo sapiens, UniProt P28074); assay: as §1
T2 sequence (P28074 whole entry): T1 sequence (whole entry)

[8] = Binding affinity to NAC methyl ester in PBS-MeOH (7:3) solution assessed as methyl 4-[[(1R,6S)-6-[[(1S,4aR,6R,8aR)-6-hydroxy-5,5,8a-trimethyl-2-methylene-decalin-1-yl]methyl]-3-[(2-acetamido-3-methoxy-3-oxo-propyl)sulfanylmethyl]-2,5-dioxo-7-oxabicyclo[4.1.0]heptan-4-yl]sulfanyl]-3-acetamido-butanoate formation at 1 mM by HPLC analysis
HL-60 [9] = assay: Inhibition of proteasome in human HL60 cells assessed as increase in accumulation of ubiquitinated proteins at 1.25 to 5 uM incubated for 4 hrs by Western blot analysis; type: functional, cell-based
HL-60 [10] = assay: Induction of apoptosis in human HL60 cells assessed as DNA fragmentation at 5 uM preincubated with 50 uM pan caspase inhibitor, z-VAD-FMK for 1 hr followed by incubation with compound for 4 hrs by ethidium bromide staining based agarose gel electrophoresis method; type: functional, cell-based
[11] = Binding affinity to NAC methyl ester assessed as methyl 3-[[(1R,6S)-6-[[(1S,4aR,6R,8aR)-6-hydroxy-5,5,8a-trimethyl-2-methylene-decalin-1-yl]methyl]-2,5-dioxo-7-oxabicyclo[4.1.0]hept-3-en-3-yl]methylsulfanyl]-2-acetamido-propanoate formation by UV spectra analysis
[12] = biological target: T3, Proteasome component C5 (Homo sapiens) (UniProt P20618); assay: Inhibition of caspase-like activity of beta1 subunit of 20S proteasome in human erythrocytes using Z-LLE-MCA as substrate preincubated with enzyme for 10 mins followed by substrate addition and measured after 3 hrs by fluorescence spectrophotometeric analysis
T3 sequence (whole entry): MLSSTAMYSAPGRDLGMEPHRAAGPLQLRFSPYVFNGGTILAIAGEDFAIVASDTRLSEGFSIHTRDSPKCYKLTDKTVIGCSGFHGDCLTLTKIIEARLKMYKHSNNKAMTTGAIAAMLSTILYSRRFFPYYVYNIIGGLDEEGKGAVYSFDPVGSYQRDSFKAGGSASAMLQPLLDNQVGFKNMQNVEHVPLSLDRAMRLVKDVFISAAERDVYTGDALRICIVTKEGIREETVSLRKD

[13] = Binding affinity to NAC methyl ester in PBS-MeOH (7:3) solution assessed as methyl 3-[[(1R,6S)-6-[[(1S,4aR,6R,8aR)-6-hydroxy-5,5,8a-trimethyl-2-methylene-decalin-1-yl]methyl]-2,5-dioxo-7-oxabicyclo[4.1.0]hept-3-en-3-yl]methylsulfanyl]-2-acetamido-propanoate formation at 1 mM by HPLC analysis
HL-60 [14] = assay: Antiproliferative activity against human HL60 cells assessed as cell growth inhibition incubated for 2 days by MTT assay; type: functional, cell-based; settings: HL-60, 48 h
HL-60 [15] = assay: Induction of apoptosis in human HL60 cells assessed as increase in cleavage of caspase 3 incubated for 4 hrs by Western blot analysis; type: functional, cell-based
HL-60 [16] = assay: Induction of apoptosis in human HL60 cells assessed as increase in DNA fragmentation incubated for 4 hrs by ethidium bromide staining based agarose gel electrophoresis method; type: functional, cell-based
HL-60 [17] = assay: Induction of apoptosis in human HL60 cells assessed as DNA fragmentation at 50 uM preincubated with 50 uM pan caspase inhibitor, z-VAD-FMK for 1 hr followed by incubation with compound for 4 hrs by ethidium bromide staining based agarose gel electrophoresis method; type: functional, cell-based
HL-60 [18] = assay: Inhibition of proteasome in human HL60 cells assessed as increase in accumulation of ubiquitinated proteins at 12.5 to 50 uM incubated for 4 hrs by Western blot analysis; type: functional, cell-based
[19] = biological target: Proteasome Macropain subunit (Homo sapiens) (UniProt P49721); assay: Inhibition of trypsin-like activity of beta2 subunit of 20S proteasome in human erythrocytes at 100 uM using Boc-LRR-MCA as substrate preincubated with enzyme for 10 mins followed by substrate addition and measured after 3 hrs by fluorescence spectrophotometric analysis
HL-60 [20] = assay: Inhibition of proteasome in human HL60 cells assessed as accumulation of ubiquitinated proteins at 100 uM incubated for 4 hrs by Western blot analysis; type: functional, cell-based
[21] = biological target: T3, Proteasome component C5 (Homo sapiens); assay: Inhibition of caspase-like activity of beta1 subunit of 20S proteasome in human erythrocytes at 100 uM using Z-LLE-MCA as substrate preincubated with enzyme for 10 mins followed by substrate addition and measured after 3 hrs by fluorescence spectrophotometeric analysis
HL-60 [22] = assay: Induction of apoptosis in human HL60 cells assessed as DNA fragmentation at 100 uM preincubated with 50 uM pan caspase inhibitor, z-VAD-FMK for 1 hr followed by incubation with compound for 4 hrs by ethidium bromide staining based agarose gel electrophoresis method; type: functional, cell-based
[23] = biological target: T1, Proteasome Macropain subunit MB1 (Homo sapiens); assay: Inhibition of chymotrypsin-like activity of beta5 subunit of 20S proteasome in human erythrocytes at 100 uM using Suc-LLVY-MCA as substrate preincubated with enzyme for 10 mins followed by substrate addition and measured after 3 hrs by fluorescence spectrophotometeric analysis
[24] = Binding affinity to NAC methyl ester in PBS-MeOH (7:3) solution at 1 mM by HPLC analysis
[25] = Binding affinity to NAC methyl ester in PBS-MeOH (7:3) solution assessed as methyl 3-[[(1R,6S)-6-[[(1S,4aR,6R,8aR)-6-hydroxy-5,5,8a-trimethyl-2-methylene-decalin-1-yl]methyl]-3-(hydroxymethyl)-2,5-dioxo-7-oxabicyclo[4.1.0]heptan-4-yl]sulfanyl]-2-acetamido-propanoate formation at 1 mM by HPLC analysis
HL-60 [26] = assay: Antiproliferative activity against human HL60 cells assessed as cell viability at 0.5 to 1 uM incubated for 48 hrs in presence of 5 mM nucleophile, NAC by trypan blue dye exclusion assay; type: functional, cell-based
COLO 201 = assay: Cytotoxicity against human COLO201 cells; type: functional, cell-based
[27] = Binding affinity to NAC methyl ester in PBS-MeOH (7:3) solution assessed as disappearance of peak regarding parent compound at 1 mM measured within 1 min by HPLC analysis

Chain of Proteasome Macropain subunit (Homo sapiens) (P49721 whole entry): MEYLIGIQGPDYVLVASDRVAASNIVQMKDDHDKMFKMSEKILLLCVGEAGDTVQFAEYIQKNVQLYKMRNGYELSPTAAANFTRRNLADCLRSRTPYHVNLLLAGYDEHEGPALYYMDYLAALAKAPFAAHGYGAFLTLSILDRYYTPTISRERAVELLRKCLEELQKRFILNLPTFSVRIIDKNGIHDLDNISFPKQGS

C=C1CC[C@H]2C(C)(C)[C@H](O)CC[C@]2(C)[C@H]1C[C@]12O[C@H]1C(=O)C(COC(=O)C[C@H](C)O)=CC2=O
5.28: pIC50 [7]
5.89: pIC50 (HL-60 [14])
inactive: Activity (HL-60 [2]) | Activity (HL-60 [3]) | Activity (HL-60 [4]) | inhibition (Proteasome) | Activity (HL-60 [10])
active: Activity [1] | inhibition [5] Dose-dependent effect | inhibition [6] Dose-dependent effect | Activity [8] | inhibition (HL-60 [9]) | Activity [11] | inhibition [12] Dose-dependent effect | Activity [13] | Activity (HL-60 [15]) Dose-dependent effect | Activity (HL-60 [16]) Dose-dependent effect

C=C1CC[C@H]2C(C)(C)[C@H](O)CC[C@]2(C)[C@H]1C[C@]12O[C@H]1[C@H](O)C(COC(=O)[C@H](O)[C@H](C)O)=CC2=O
4.67: pIC50 (HL-60 [14])
inactive: Activity (HL-60 [3]) | Activity (HL-60 [17])
4.03: pIC50 [7]
active: inhibition [5] Dose-dependent effect | inhibition [6] Dose-dependent effect | inhibition [12] Dose-dependent effect | Activity (HL-60 [15]) Dose-dependent effect | inhibition (HL-60 [18]) | Activity (HL-60 [16]) Dose-dependent effect

C=C1CC[C@H]2C(C)(C)[C@H](O)CC[C@]2(C)[C@H]1C[C@]12O[C@H]1[C@H](O)C(CO)=CC2=O
active: Activity (HL-60 [15]) Dose-dependent effect | Activity (HL-60 [16]) Dose-dependent effect
inactive: inhibition [19] | Activity (HL-60 [3]) | inhibition (HL-60 [20]) | inhibition [21] | Activity (HL-60 [22]) | inhibition [23] | Activity [24]
4.60: pIC50 (HL-60 [14])
< 4.00: pIC50 [7]

C=C1CC[C@H]2C(C)(C)[C@H](O)CC[C@]2(C)[C@H]1C[C@]12O[C@H]1C(=O)C(CO)=CC2=O
6.52: pIC50 (HL-60 [14])
active: Activity [1] | inhibition [5] Dose-dependent effect | Activity [25] | inhibition [6] Dose-dependent effect | inhibition (HL-60 [9]) | inhibition [12] Dose-dependent effect | Activity (HL-60 [15]) Dose-dependent effect | Activity (HL-60 [16]) Dose-dependent effect
inactive: Activity (HL-60 [3]) | Activity (HL-60 [4]) | inhibition (Proteasome) | Activity (HL-60 [10]) | inhibition (HL-60 [26])
4.58: pIC50 [7]

C=C1CC[C@H]2C(C)(C)[C@H](O)CC[C@]2(C)[C@H]1C[C@]12O[C@H]1[C@H](O)C(COC(=O)C[C@H](C)O)=CC2=O
inactive: Activity (HL-60 [3]) | Activity (HL-60 [17])
4.82: pIC50 (HL-60 [14])
4.50: pIC50 [7]
active: inhibition [5] Dose-dependent effect | inhibition [6] Dose-dependent effect | inhibition [12] Dose-dependent effect | Activity (HL-60 [15]) Dose-dependent effect | inhibition (HL-60 [18]) | Activity (HL-60 [16]) Dose-dependent effect

C=C1CC[C@H]2C(C)(C)[C@H](O)CC[C@]2(C)[C@H]1C[C@]12O[C@H]1C(=O)C(COC(=O)[C@H](O)[C@H](C)O)=CC2=O
inactive: Activity (HL-60 [2]) | Activity (HL-60 [3]) | Activity (HL-60 [4]) | inhibition (Proteasome) | Activity (HL-60 [10])
active: Activity [1] | inhibition [5] Dose-dependent effect | inhibition [6] Dose-dependent effect | Activity [8] | inhibition (HL-60 [9]) | Activity [11] | inhibition [12] Dose-dependent effect | Activity [13] | Activity (HL-60 [15]) Dose-dependent effect | Activity (HL-60 [16]) Dose-dependent effect | Activity [27]
5.59: pIC50 (HL-60 [14])
4.02: pIC50 (COLO 201)
5.24: pIC50 [7]
